Data on 1 compound can be found in patent publication US20190210996A1, “NOVEL COMPOUNDS” (GLAXOSMITHKLINE INTELLECTUAL PROPERTY DEVELOPMENT LIMITED, priority 2016, published 2019).

The target in the experiment is T1, GAK (Homo sapiens, UniProt O14976).
T1 construct: endogenous in cells; host or cells: THP-1
T1 sequence (O14976 1-1311): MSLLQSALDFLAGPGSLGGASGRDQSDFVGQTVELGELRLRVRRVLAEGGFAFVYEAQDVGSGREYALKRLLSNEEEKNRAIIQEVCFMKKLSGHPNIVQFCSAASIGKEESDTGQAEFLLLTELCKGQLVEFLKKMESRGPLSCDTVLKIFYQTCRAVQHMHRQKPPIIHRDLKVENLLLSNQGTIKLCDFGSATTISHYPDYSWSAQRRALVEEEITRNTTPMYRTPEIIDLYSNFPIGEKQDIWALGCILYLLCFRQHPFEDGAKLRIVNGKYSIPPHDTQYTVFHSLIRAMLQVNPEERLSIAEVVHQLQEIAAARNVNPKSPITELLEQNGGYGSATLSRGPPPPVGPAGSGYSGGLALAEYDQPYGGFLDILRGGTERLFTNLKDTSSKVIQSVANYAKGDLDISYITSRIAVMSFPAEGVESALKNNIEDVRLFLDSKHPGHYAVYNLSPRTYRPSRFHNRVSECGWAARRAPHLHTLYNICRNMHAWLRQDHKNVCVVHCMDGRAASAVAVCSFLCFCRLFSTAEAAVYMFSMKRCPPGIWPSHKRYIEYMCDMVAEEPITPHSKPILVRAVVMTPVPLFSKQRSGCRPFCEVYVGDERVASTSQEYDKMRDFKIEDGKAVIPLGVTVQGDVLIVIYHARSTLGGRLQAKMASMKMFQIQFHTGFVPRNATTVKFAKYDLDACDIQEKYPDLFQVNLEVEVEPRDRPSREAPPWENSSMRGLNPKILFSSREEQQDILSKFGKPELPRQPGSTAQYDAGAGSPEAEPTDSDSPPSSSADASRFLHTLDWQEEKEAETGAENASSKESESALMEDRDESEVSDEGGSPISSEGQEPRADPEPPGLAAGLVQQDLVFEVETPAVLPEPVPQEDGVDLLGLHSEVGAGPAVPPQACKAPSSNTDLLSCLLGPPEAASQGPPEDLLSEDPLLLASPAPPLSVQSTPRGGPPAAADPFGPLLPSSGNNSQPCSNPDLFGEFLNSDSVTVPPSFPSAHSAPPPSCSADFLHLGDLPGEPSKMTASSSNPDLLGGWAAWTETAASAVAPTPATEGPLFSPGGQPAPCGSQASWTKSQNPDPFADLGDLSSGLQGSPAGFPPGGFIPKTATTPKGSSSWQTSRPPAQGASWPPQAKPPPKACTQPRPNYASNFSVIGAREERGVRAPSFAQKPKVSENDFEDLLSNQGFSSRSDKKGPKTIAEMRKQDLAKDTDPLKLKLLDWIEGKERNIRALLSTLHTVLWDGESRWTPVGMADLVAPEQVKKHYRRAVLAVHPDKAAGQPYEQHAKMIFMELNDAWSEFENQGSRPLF
Description: Expression proteomics in THP-1 cells: GAK protein level. The experiment is classed as cell-based. The procedure:
THP-1 cells were seeded at a concentration of 3×10^6 cells in T175 flasks with 60 mL growth medium (RPMI1640+10% FBS). […] of a 10× compound solution prepared in growth medium (DMSO), CEREBLON_PROTAC) was added and the cells were treated for the indicated time points (6 or 24 h) at 37° C., 5% CO2. For harvesting the cells were collected into falcon tubes on ice, centrifuged and washed twice in cold PBS (Life technologies). After the last washing step the supernatant was removed and the pellets were snap-frozen in liquid N2 and stored at −80° C. and lysed in 2% SDS for 3 min at 95° C. in a thermomixer (Thermo Fisher Scientific), followed by digestion of DNA with Benzonase at 37° C. for 1.5 h. Lysate was cleared by centrifugation an protein concentration in supernatant was determined by BCA assay.
Leukemia 25, 89-100 (2011).
Samples were dried in vacuo and resuspended in 0.05% trifluoroacetic acid in water. Of the sample, 50% was injected into an Ultimate3000 nanoRLSC (Dionex, Sunnyvale, Calif.) coupled to a Q Exactive HF (Thermo Fisher Scientific). Peptides were trapped on a 5 mm×300 μm C18 column (Pepmap100, 5 μm, 300 Å, Thermo Fisher Scientific) in water with 0.05% TFA at 60° C. Separation was performed on custom 50 cm×[…] (ID) reversed-phase columns (Reprosil) at 55° C. Gradient elution was performed from 2% acetonitrile to 40% acetonitrile in 0.1% formic acid and 3.5% DMSO over 2 hours. Samples were online injected into Q-Exactive HF mass spectrometers operating with a data-dependent top 10 method. MS spectra were acquired by using 60.000 resolution and an ion target of 3×10^6. Higher energy collisional dissociation (HCD) scans were performed with 35% NCE at 30.000 resolution (at m/z 200), and the ion target settings was set to 2×10^5 so as to avoid coalescence (Werner, T. et al. Ion Coalescence of Neutron Encoded TMT 10-Plex Reporter Ions. Anal. Chem. 86, 3594-3601 (2014).
The first search was performed with 30 parts per million mass tolerance for peptide precursors and 30 mD (HCD) mass tolerance for fragment ions followed by a final search using recalibrated data with a 10 parts per million mass tolerance for peptide precursors and 20 mD (HCD) mass tolerance for fragment ions. Carbamidomethylation of cysteine residues and TMT modification of lysine residues were set as fixed modifications and methionine oxidation, and N-terminal acetylation of proteins and TMT modification of peptide N-termini were set as variable modifications. […]
Nat Biotech 29, 255-265 (2011). this measure is referred to as ion area Savitski, M. M. et al. Delayed Fragmentation and Optimized Isolation Width Settings for Improvement of Protein Identification and Accuracy of Isobaric Mass Tag Quantification on Orbitrap-Type Mass Spectrometers. […]

As to `CNC(=O)c1ccccc1Nc1nc(Nc2ccc(N3CCN(CCOCCOCCOCCOCC(=O)Nc4cccc5c4CN(C4CCC(=O)NC4=O)C5=O)CC3)cc2)ncc1Cl.O=CO` (stereo not shown) [CEREBLON_PROTAC, 14-(4-(4-((5-Chloro-4-((2-(methylcarbamoyl)phenyl)amino)pyrimidin-2-yl)amino)phenyl)piperazin-1-yl)-N-(2-(2,6-dioxopiperidin-3-yl)-1-oxoisoindolin-4-yl)-3,6,9,12-tetraoxatetradecan-1-amide formate], the “log2 rel. fc. to vehicle control” value is −1.13 (24 h 0.1 μM, n = 1); −1.35 (24 h 0.1 μM, n = 2); −0.93 (24 h 1 μM, n = 1); −1.13 (24 h 1 μM, n = 2).
